# Assay: gradient 5% acetonitrile 3 min, to 50% in 2 min, to 85% in 15 min, held 3 min, 100 µL/min
# Details: column: Zorbax Extend-C18 2.1 x 50 mm; eluents: water / acetonitrile, 0.1% formic acid
# Outline: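 Retention times of pure standards were taken from adduct peaks that were selected by computer and manually inspected. Over 3 months, mixtures of ~100 molecules were run by HPLC–quadrupole time-of-flight mass spectrometry in positive and negative ionization mode. The Zorbax Extend-C18 column (2.1 × 50 mm, 1.8 μm) ran at 100 μL/min in water and acetonitrile, each containing 0.1% formic acid, with 40 μL dead volume and 900 μL dwell volume.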
row,SMILES,RP-LC retention time [s]
1,COc1ccc(-c2nc(-c3ccc4c(c3)oc(=O)n4C)no2)c(C)c1,1100
2,COc1ccc2c(c1)C1(CCN(C(=O)NC(C)(C)C)C1)C(=O)N2C (stereo not drawn),753
3,COc1ccc2[nH]c(=O)c(CCC(=O)NCCCN3CCCCC3C)cc2c1 (stereo not drawn),589
4,CCCS(=O)(=O)N1CC(=O)N(c2ccc(Cl)cc2C)C(C)(C(=O)NC2CCCCC2)C1 (stereo not drawn),1040
5,Cc1cccc(Cn2ccnc2C(N)=O)c1,801
6,COC1CCC12CCN(C(=O)c1sc(C)nc1C)CC2 (stereo not drawn),728
7,CC(C)CCn1nc2c(S(=O)(=O)N3CCOCC3)cccn2c1=O,758
8,CS(=O)(=O)N[C@H]1C[C@@H]2C[C@H]1CN2C(=O)c1ccccc1C(F)(F)F,705
9,O=C(NCCN1CCOCC1)c1ccc(Nc2c(-c3ccc(Cl)cc3)nc3cnccn23)cc1,620
10,CCN1C(=O)COc2cc(-c3noc(C(=O)NC4CCCCCC4)n3)ccc21,1050
11,Cc1ccc(C)c(S(=O)(=O)N(C)CC2CCOCC2)c1,913
12,CCc1nc2cc(-c3noc(-c4ccc(OC)cc4)n3)ccc2o1,1180
13,Cc1ccc(NC(=O)c2cn3c(n2)CCCC3)cc1C,604
14,CCOC(=O)C(Cc1c(C)[nH]c2ccccc12)C(=O)OCC,1000
15,Cc1oc(C2CCN(C(=O)C3CCCN(S(=O)(=O)N4CCCC4)C3)CC2)nc1C(=O)N1CCCC1 (stereo not drawn),737
16,CCn1cc(CN2CCC(C(=O)NC3CCCCCC3)CC2)c2cc(OC)ccc21,741
17,CCCCOc1ccc(-c2nc3ccc(Br)cc3c(C(=O)O)c2C)cc1,963

# Further lines, results first:
row,RP-LC retention time [s],SMILES
1,794,Cc1cccc(NC(=O)Nc2nc(C(=O)NCc3cccs3)cs2)c1
2,560,CC(C)COc1ccc(S(=O)(=O)N2CCOC(c3ccccc3)C2)cc1 (stereo not drawn)
3,901,O=c1c(=O)n(-c2ccccc2)ccn1Cc1nc(-c2ccc(Br)cc2)no1
4,708,O=C(Cn1nc2c(N3CCCCCC3)nccn2c1=O)Nc1ccccc1Cl
5,1420,CCn1c(=O)c(N2CCCC(C(=O)N3CCN(c4cc(Cl)ccc4C)CC3)C2)nc2ccccc21 (stereo not drawn)
6,591,CC(C)C(NC(=O)c1ccc([N+](=O)[O-])cc1)c1nc2ccccc2[nH]1 (stereo not drawn)
7,875,COCCN1C(=O)c2ccccc2C(C(=O)Nc2ccc3c(c2)OCO3)C1c1ccc(F)cc1 (stereo not drawn)
8,857,CCOC(=O)C(CC)n1cnc2c(cnn2-c2ccccc2)c1=O (stereo not drawn)
9,834,COc1ccc(NC(=O)N2CCCC2c2nc(-c3ccccc3OC)no2)cc1F (stereo not drawn)
10,710,CN1CCCc2cc(C(CNC(=O)C(=O)NCc3ccccc3)N3CCCC3)ccc21 (stereo not drawn)
11,616,Cc1ccccc1CC(=O)N1CCC(c2nc(C(=O)N3CCOCC3)c(C)o2)CC1
12,718,O=C(c1ccc(OCC2CCN(C(=O)c3ccco3)CC2)cc1)N1CCOCC1
13,784,CN1C2CCC1CC(OC(c1ccccc1)c1ccccc1)C2 (stereo not drawn)
14,765,CN1C(=O)C2(CCN(C(=O)c3cccc(F)c3)C2)c2ccccc21 (stereo not drawn)
15,806,Cc1cccc(NC(=O)N2CCC3(CC2)N=C(c2ccccc2)C(=O)N3)c1
16,680,CCC1CCCCN1C(=O)c1cnc2nc(C)ccc2c1Nc1ccc(F)c(C)c1 (stereo not drawn)
